{"source": "patent US11312727B1", "about": "“Macrocyclic flu endonuclease inhibitors” (Janssen BioPharma, Inc., priority 2018, dated 2022)", "key": {"in vitro": {"experiment": "in vitro", "conditions": "human, CC50, uninfected A549 cells, CellTiter-Glo"}, "[1]": {"tested_on": "Influenza strain A549 A/WSN/33 (H1N1)", "experiment": "microbe, parasite or virus in culture", "assay_type": "cell-based", "conditions": "Influenza A virus, A549, 20 h, A549 cells, influenza A/WSN/33 (H1N1), 20 hours incubation; read-out: A549_A(H1N1) EC50"}}, "data": [{"smiles": "C/C1=C/CN2CN([C@H](c3ccccc3)c3ccccc3OC1)n1ccc(=O)c(O)c1C2=O", "note": "(single isomer, unassigned) [Compound 44A, (18*R,*Z)-12-hydroxy-7-methyl-18-phenyl-6,9-dihydro-18H-10,17-methanobenzo[b]pyrido[1,2-f][1]oxa[5,6,9]triazacyclotridecine-11,13-dione]", "values": [{"measurement": "CC50", "setting": "in vitro", "result": "> 200", "unit": "nM"}, {"measurement": "EC50", "setting": "[1]", "result": "> 100", "unit": "nM"}]}, {"smiles": "Cc1c(F)ccc2c1OC/C=C\\CN1CN([C@H]2c2ccccc2)n2ccc(=O)c(O)c2C1=O", "note": "(single isomer, unassigned) [Compound 133B, (18*S,Z)-3-fluoro-12-hydroxy-4-methyl-18-phenyl-6,9-dihydro-18H-10,17-methanobenzo[b]pyrido[1,2-f][1]oxa[5,6,9]triazacyclotridecine-11,13-dione]", "values": [{"measurement": "CC50", "setting": "in vitro", "result": "> 200", "unit": "nM"}, {"measurement": "EC50", "setting": "[1]", "result": "> 100", "unit": "nM"}]}, {"smiles": "O=C1c2c(O)c(=O)ccn2N2CN1CCCCOc1ccc(F)cc1[C@H]2c1ccccc1", "note": "(single isomer, unassigned) [Compound 30A, (18*R)-2-fluoro-12-hydroxy-18-phenyl-6,7,8,9-tetrahydro-18H-10,17-methanobenzo[b]pyrido[1,2-f][1]oxa[5,6,9]triazacyclotridecine-11,13-dione]", "values": [{"measurement": "CC50", "setting": "in vitro", "result": "> 2000", "unit": "nM"}, {"measurement": "EC50", "setting": "[1]", "result": "> 1000", "unit": "nM"}]}, {"smiles": "CC(C)(C)[C@@H]1/C=C/COc2cccc3c2[C@H](c2ccccc2SC3)N2CN1C(=O)c1c(O)c(=O)ccn12", "note": "(single isomer, unassigned) [Compound 157B, (9*S,17a*R,*E)-9-(tert-butyl)-12-hydroxy-2,6,9,17a-tetrahydro-3,4-(epiprop[1]en[1]yl[3]ylidene)-10,17-methanobenzo[6,7]thiepino[4,5-c]pyrido[1,2-f][1]oxa[5,6,9]triazacyclotridecine-11,13-dione]", "values": [{"measurement": "CC50", "setting": "in vitro", "result": "> 100", "unit": "nM"}, {"measurement": "EC50", "setting": "[1]", "result": "> 50", "unit": "nM"}]}, {"smiles": "C[C@H]1/C=C/COc2cccc3c2[C@@H](c2ccccc2SC3)N2CN1C(=O)c1c(O)c(=O)ccn12", "note": "(single isomer, unassigned) [Compound 138D, (9*S,17a*S,E)-12-hydroxy-9-methyl-2,6,9,17a-tetrahydro-3,4-(epiprop[1]en[1]yl[3]ylidene)-10,17-methanobenzo[6,7]thiepino[4,5-c]pyrido[1,2-f][1]oxa[5,6,9]triazacyclotridecine-11,13-dione]", "values": [{"measurement": "CC50", "setting": "in vitro", "result": "> 200", "unit": "nM"}, {"measurement": "EC50", "setting": "[1]", "result": 0.9, "unit": "nM"}]}, {"smiles": "CC(C)c1ccccc1[C@@H]1c2ccc(F)c(F)c2OC/C=C\\CN2CN1n1ccc(=O)c(O)c1C2=O", "note": "(single isomer, unassigned) [Compound 158B, (18*R,*Z)-3,4-difluoro-12-hydroxy-18-(2-isopropylphenyl)-6,9-dihydro-18H-10,17-methanobenzo[b]pyrido[1,2-f][1]oxa[5,6,9]triazacyclotridecine-11,13-dione]", "values": [{"measurement": "CC50", "setting": "in vitro", "result": "> 100", "unit": "nM"}, {"measurement": "EC50", "setting": "[1]", "result": "> 50", "unit": "nM"}]}, {"smiles": "O=C1c2c(O)c(=O)ccn2N2CN1C1(/C=C/COc3cccc4c3[C@@H]2c2ccccc2SC4)CCC1", "note": "(single isomer, unassigned) [Compound 147A, (17a′*R,*E)-12′-hydroxy-2′,17a′-dihydro-6′H-spiro[cyclobutane-1,9′-[3,4](epiprop[1]en[1]yl[3]ylidene)[10,17]methanobenzo[6,7]thiepino[4,5-c]pyrido[1,2-f][1]oxa[5,6,9]triazacyclotridecine]-11′,13′-dione]", "values": [{"measurement": "CC50", "setting": "in vitro", "result": "> 10000", "unit": "nM"}, {"measurement": "EC50", "setting": "[1]", "result": "> 5000", "unit": "nM"}]}, {"smiles": "O=C1c2c(O)c(=O)ccn2N2CN1C1(/C=C/COc3cccc4c3[C@@H]2c2ccccc2SC4)CC1", "note": "(single isomer, unassigned) [Compound 107A, (17a′*R,*E)-12′-hydroxy-2′,17a′-dihydro-6′H-spiro[cyclopropane-1,9′-[3,4](epiprop[1]en[1]yl[3]ylidene)[10,17]methanobenzo[6,7]thiepino[4,5-c]pyrido[1,2-f][1]oxa[5,6,9]triazacyclotridecine]-11′,13′-dione]", "values": [{"measurement": "CC50", "setting": "in vitro", "result": "> 200", "unit": "nM"}, {"measurement": "EC50", "setting": "[1]", "result": "> 100", "unit": "nM"}]}, {"smiles": "O=C1c2c(O)c(=O)ccn2N2CN1CC/C=C\\c1ccccc1C2c1ccccc1", "note": "(stereo not drawn) [Compound 54, (*Z)-4-hydroxy-15-phenyl-8,15-dihydro-7H-6,16-methanobenzo[j]pyrido[1,2-b][1,2,5]triazacyclododecine-3,5-dione]", "values": [{"measurement": "CC50", "setting": "in vitro", "result": "> 20000", "unit": "nM"}, {"measurement": "EC50", "setting": "[1]", "result": 117, "unit": "nM"}]}]}
